Data: patent publication US8192962B2, “Processes for detecting toxic substances” (Daikin Industries, Ltd., priority 2001, dated 2012)

Test system: Energy system protein genes
Assay: DNA chip mRNA expression in yeast, energy system protein genes (Table 4)
Format: cell-based, Saccharomyces cerevisiae S288C
Summary of the method: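 In this screen, yeast in logarithmic growth are challenged for two hours with a toxic substance at a non-lethal inhibitory concentration. Their mRNA, converted to Cy3- or Cy5-labeled cDNA, hybridizes at 65° C. to a chip spanning every yeast gene, and expression is expressed as a ratio to untreated cells.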

N#Cc1c(Cl)c(Cl)c(Cl)c(C#N)c1Cl [(9), 2,4,5,6-tetrachloro-1,3-benzenedicarbonitrile]
The level of expressed mRNA in the presence of chemical substance/The level of expressed mRNA in the absence of chemical substance (yeast gene YAL054C): 8.9 | The level of expressed mRNA in the presence of chemical substance/The level of expressed mRNA in the absence of chemical substance (yeast gene YAL060W): 0.6 | The level of expressed mRNA in the presence of chemical substance/The level of expressed mRNA in the absence of chemical substance (yeast gene YBL058W, cells incubated two hours with the chemical substance): 2.6 | The level of expressed mRNA in the presence of chemical substance/The level of expressed mRNA in the absence of chemical substance (yeast gene YBL099W, cells incubated two hours with the chemical substance): 0.9 | The level of expressed mRNA in the presence of chemical substance/The level of expressed mRNA in the absence of chemical substance (yeast gene YBR001C, cells incubated two hours with the chemical substance): 2.3 | The level of expressed mRNA in the presence of chemical substance/The level of expressed mRNA in the absence of chemical substance (yeast gene YBR185C, cells incubated two hours with the chemical substance): 0.9 | The level of expressed mRNA in the presence of chemical substance/The level of expressed mRNA in the absence of chemical substance (yeast gene YBR221C, cells incubated two hours with the chemical substance): 1.0 | The level of expressed mRNA in the presence of chemical substance/The level of expressed mRNA in the absence of chemical substance (yeast gene YBR299W): 1.1 | The level of expressed mRNA in the presence of chemical substance/The level of expressed mRNA in the absence of chemical substance (yeast gene YCL040W): 0.9 | The level of expressed mRNA in the presence of chemical substance/The level of expressed mRNA in the absence of chemical substance (yeast gene YCR012W): 1.4 | The level of expressed mRNA in the presence of chemical substance/The level of expressed mRNA in the absence of chemical substance (yeast gene YCR046C, cells incubated two hours with the chemical substance): 1.9 | The level of expressed mRNA in the presence of chemical substance/The level of expressed mRNA in the absence of chemical substance (yeast gene YCR105W, cells incubated two hours with the chemical substance): 2.0 | The level of expressed mRNA in the presence of chemical substance/The level of expressed mRNA in the absence of chemical substance (yeast gene YDL021W): 2.5 | The level of expressed mRNA in the presence of chemical substance/The level of expressed mRNA in the absence of chemical substance (yeast gene YDL067C, cells incubated two hours with the chemical substance): 0.9 | The level of expressed mRNA in the presence of chemical substance/The level of expressed mRNA in the absence of chemical substance (yeast gene YDL078C, cells incubated two hours with the chemical substance): 1.1 | The level of expressed mRNA in the presence of chemical substance/The level of expressed mRNA in the absence of chemical substance (yeast gene YDL107W, cells incubated two hours with the chemical substance): 1.2 | The level of expressed mRNA in the presence of chemical substance/The level of expressed mRNA in the absence of chemical substance (yeast gene YDL174C): 0.5 | The level of expressed mRNA in the presence of chemical substance/The level of expressed mRNA in the absence of chemical substance (yeast gene YDL181W, cells incubated two hours with the chemical substance): 0.7 | The level of expressed mRNA in the presence of chemical substance/The level of expressed mRNA in the absence of chemical substance (yeast gene YDR001C): 2.2 | The level of expressed mRNA in the presence of chemical substance/The level of expressed mRNA in the absence of chemical substance (yeast gene YDR050C, cells incubated two hours with the chemical substance): 0.4 | The level of expressed mRNA in the presence of chemical substance/The level of expressed mRNA in the absence of chemical substance (yeast gene YDR079W, cells incubated two hours with the chemical substance): 0.9 | The level of expressed mRNA in the presence of chemical substance/The level of expressed mRNA in the absence of chemical substance (yeast gene YDR178W, cells incubated two hours with the chemical substance): 0.9 | The level of expressed mRNA in the presence of chemical substance/The level of expressed mRNA in the absence of chemical substance (yeast gene YDR231C): 1.5 | The level of expressed mRNA in the presence of chemical substance/The level of expressed mRNA in the absence of chemical substance (yeast gene YDR298C, cells incubated two hours with the chemical substance): 1.0 | The level of expressed mRNA in the presence of chemical substance/The level of expressed mRNA in the absence of chemical substance (yeast gene YDR377W, cells incubated two hours with the chemical substance): 1.0 | The level of expressed mRNA in the presence of chemical substance/The level of expressed mRNA in the absence of chemical substance (yeast gene YDR529C, cells incubated two hours with the chemical substance): 0.5 | The level of expressed mRNA in the presence of chemical substance/The level of expressed mRNA in the absence of chemical substance (yeast gene YEL024W, cells incubated two hours with the chemical substance): 0.7 | The level of expressed mRNA in the presence of chemical substance/The level of expressed mRNA in the absence of chemical substance (yeast gene YEL039C, cells incubated two hours with the chemical substance): 1.2 | The level of expressed mRNA in the presence of chemical substance/The level of expressed mRNA in the absence of chemical substance (yeast gene YER178W): 1.7 | The level of expressed mRNA in the presence of chemical substance/The level of expressed mRNA in the absence of chemical substance (yeast gene YFL057C): 51.8 | The level of expressed mRNA in the presence of chemical substance/The level of expressed mRNA in the absence of chemical substance (yeast gene YFR053C): 0.6 | The level of expressed mRNA in the presence of chemical substance/The level of expressed mRNA in the absence of chemical substance (yeast gene YGL018C, cells incubated two hours with the chemical substance): 0.5 | The level of expressed mRNA in the presence of chemical substance/The level of expressed mRNA in the absence of chemical substance (yeast gene YGL062W): 1.6 | The level of expressed mRNA in the presence of chemical substance/The level of expressed mRNA in the absence of chemical substance (yeast gene YGL187C, cells incubated two hours with the chemical substance): 0.6 | The level of expressed mRNA in the presence of chemical substance/The level of expressed mRNA in the absence of chemical substance (yeast gene YGL191W, cells incubated two hours with the chemical substance): 1.1 | The level of expressed mRNA in the presence of chemical substance/The level of expressed mRNA in the absence of chemical substance (yeast gene YGL205W, cells incubated two hours with the chemical substance): 0.5 | The level of expressed mRNA in the presence of chemical substance/The level of expressed mRNA in the absence of chemical substance (yeast gene YGL256W, cells incubated two hours with the chemical substance): 0.4 | The level of expressed mRNA in the presence of chemical substance/The level of expressed mRNA in the absence of chemical substance (yeast gene YGR008C): 3.1 | The level of expressed mRNA in the presence of chemical substance/The level of expressed mRNA in the absence of chemical substance (yeast gene YGR043C): 10.9 | The level of expressed mRNA in the presence of chemical substance/The level of expressed mRNA in the absence of chemical substance (yeast gene YGR062C, cells incubated two hours with the chemical substance, 25° C., YPD medium): 1.0 | The level of expressed mRNA in the presence of chemical substance/The level of expressed mRNA in the absence of chemical substance (yeast gene YGR087C, cells incubated two hours with the chemical substance): 0.2 | The level of expressed mRNA in the presence of chemical substance/The level of expressed mRNA in the absence of chemical substance (yeast gene YGR174C, cells incubated two hours with the chemical substance): 1.8 | The level of expressed mRNA in the presence of chemical substance/The level of expressed mRNA in the absence of chemical substance (yeast gene YGR192C): 0.9 | The level of expressed mRNA in the presence of chemical substance/The level of expressed mRNA in the absence of chemical substance (yeast gene YGR244C): 1.4 | The level of expressed mRNA in the presence of chemical substance/The level of expressed mRNA in the absence of chemical substance (yeast gene YGR254W): 0.8 | The level of expressed mRNA in the presence of chemical substance/The level of expressed mRNA in the absence of chemical substance (yeast gene YGR256W): 3.4 | The level of expressed mRNA in the presence of chemical substance/The level of expressed mRNA in the absence of chemical substance (yeast gene YHL008C): 1.6 | The level of expressed mRNA in the presence of chemical substance/The level of expressed mRNA in the absence of chemical substance (yeast gene YHR174W): 1.0 | The level of expressed mRNA in the presence of chemical substance/The level of expressed mRNA in the absence of chemical substance (yeast gene YHR179W): 3.6 | The level of expressed mRNA in the presence of chemical substance/The level of expressed mRNA in the absence of chemical substance (yeast gene YIL160C): 3.2 | The level of expressed mRNA in the presence of chemical substance/The level of expressed mRNA in the absence of chemical substance (yeast gene YIR031C, cells incubated two hours with the chemical substance): 2.6 | The level of expressed mRNA in the presence of chemical substance/The level of expressed mRNA in the absence of chemical substance (yeast gene YJL052W): 1.6
